Reference: patent US20250248979A1, “NOVEL GPX4 INHIBITORS AND USES THEREOF” (THE TRUSTEES OF COLUMBIA UNIVERSITY IN THE CITY OF NEW YORK, priority 2022, published 2025)

Target: T1, GPX4 (Homo sapiens, UniProt P36969)
T1 sequence (P36969 1-170 isoform P36969-2): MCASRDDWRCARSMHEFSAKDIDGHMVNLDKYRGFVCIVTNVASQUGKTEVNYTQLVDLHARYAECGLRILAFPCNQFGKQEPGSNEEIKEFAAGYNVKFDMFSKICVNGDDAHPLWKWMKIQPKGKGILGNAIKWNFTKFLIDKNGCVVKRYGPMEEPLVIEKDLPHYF
Test: GPX4 activity assay in cell lysates (NADPH-coupled)
Format: biochemical
Set-up: endogenous in cells; host or cells: A-673 cell lysate
Conditions: not given
How it was run: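 Native GPX4 in lysates of A-673 cells grown with 20 nM sodium selenite; lysate preincubated with compound 45 min at 37 °C in pH 8.0 buffer with 3 mM GSH, 0.5 mM NADPH and glutathione reductase. Reaction started with phosphatidylcholine hydroperoxide; NADPH consumption followed at 340 nm over 25 min; triplicates.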

SMILES | GPX4 inhibitory activity, result in words
CC(C)(COC(=O)CCl)NC(=O)c1n[nH]c2cc(-c3ccc(N4CCOCC4)c(Cl)c3)ccc12 [QW-583] | slight loss of inhibitory activity
CC(C)Oc1ccc(-c2ccc3c(C(=O)NC(C)(C)COC(=O)CCl)nn(C)c3c2)cn1 [QW-720] | substantially higher GPX4 inhibitory activities than QW-446

Same assay, conditions: 2.5 μM

GPX4% inhibition at 2.5 μM [%] | SMILES
45.5 ± 4.4 | Cn1nc(C(=O)NC(C)(C)COC(=O)CCl)c2ccc(-c3ccc(Br)cc3)cc21 [QW-603]
72.2 ± 5.9 | COc1ccc(-c2ccc3c(C(=O)NC(C)(C)COC(=O)CBr)nn(C)c3c2)cc1Cl [QW-608]
6.7 ± 11.9 | C=CC(=O)OCC(C)(C)NC(=O)c1nn(C)c2cc(-c3ccc(OC)c(Cl)c3)ccc12 [QW-609]
81.5 ± 1.9 | COc1ccc(-c2ccc3c(C(=O)NC(C)(C)COC(=O)CCl)nn(C)c3c2)cc1Br [QW-611]
−5.7 ± 11.7 | COc1ccc(-c2ccc3c(C(=O)NC(C)(C)COC(=O)C#C[Si](C)(C)C)nn(C)c3c2)cc1Cl [QW-612]
80.9 ± 3.4 | CN1CCN(Cc2ccc(-c3ccc4c(C(=O)NC(C)(C)COC(=O)CCl)nn(C)c4c3)cc2)CC1 [QW-617]
18.1 ± 5.9 | Cn1nc(C(=O)NC(C)(C)COC(=O)CCl)c2ccc(-c3ccc(NS(C)(=O)=O)cc3)cc21 [QW-618]
42.6 ± 8.0 | Cn1nc(C(=O)NC(C)(C)COC(=O)CCl)c2ccc(-c3ccc(C(=O)N4CCN(C(=O)OC(C)(C)C)CC4)cc3)cc21 [QW-619]
63.8 ± 7.8 | C=C(C)C(=O)Nc1ccc(-c2ccc3c(C(=O)NC(C)(C)COC(=O)CCl)nn(C)c3c2)cc1 [QW-620]
14.3 ± 16.5 | CSc1ccc(-c2ccc3c(C(=O)NC(C)(C)CNC(=O)CCl)nn(C)c3c2)cc1Cl [QW-631]
−4.9 ± 21.8 | COC(=O)c1ccc(-c2ccc3c(C(=O)NC(C)(C)CNC(=O)CCl)nn(C)c3c2)cc1Cl [QW-632]
14.0 ± 15.4 | CC(C)Oc1ccc(-c2ccc3c(C(=O)NC(C)(C)CNC(=O)CCl)nn(C)c3c2)cc1Cl [QW-635]
50.2 ± 22.0 | Cn1nc(C(=O)NC(C)(C)CNC(=O)CCl)c2ccc(-c3ccc(Cl)c(Cl)c3)cc21 [QW-636]
31.4 ± 18.5 | CC=CC(=O)OCC(C)(C)NC(=O)c1nn(C)c2cc(-c3ccc(OC)c(Cl)c3)ccc12 [QW-644]
52.0 ± 27.0 | COC(=O)C=CC(=O)OCC(C)(C)NC(=O)c1nn(C)c2cc(-c3ccc(OC)c(Cl)c3)ccc12 [QW-646]
46.9 ± 35.9 | CN(C)CCCOc1ccc(-c2ccc3c(C(=O)NC(C)(C)COC(=O)CCl)nn(C)c3c2)cc1 [QW-647]
−1.2 ± 15.2 | Cn1nc(C(=O)NC(C)(C)COC(=O)CCl)c2ccc(-c3cc4cc(F)ccc4n3C(=O)OC(C)(C)C)cc21 [QW-659]
2.4 ± 17.3 | Cn1nc(C(=O)NC(C)(C)COC(=O)CCl)c2ccc(-c3ccc(OCC(F)(F)F)cc3)cc21 [QW-719]
76.9 ± 4.2 | CC(C)Oc1ccc(-c2ccc3c(C(=O)NC(C)(C)COC(=O)CCl)nn(C)c3c2)cn1 [QW-720]
−2.2 ± 5.0 | COc1ccc(-c2ccc3c(NC(=O)C(C)(C)COC(=O)CCl)nn(C)c3c2)cc1Cl [QW-722]
23.8 ± 3.7 | Cn1nc(C(=O)NC(C)(C)COC(=O)CCl)c2ccc(-c3ccc(S(=O)(=O)N4CCC4)cc3)cc21 [QW-724]
12.0 ± 10.7 | CCOc1ccc(-c2ccc3c(C(=O)NC(C)(C)C(C)(C)OC(=O)CCl)nn(C)c3c2)cc1Cl [QW-765]
32.6 ± 7.9 | COc1ncc(-c2ccc3c(C(=O)NC(C)(C)COC(=O)CCl)nn(C)c3c2)cc1F [QW-768]
−1.0 ± 32.8 | CCOc1ccc(-c2ccc3c(C(=O)NCC(C)(C)OC(=O)CCl)nn(C)c3c2)cc1Cl [QW-782]
−172.4 ± 10.3 | COc1ccc(-c2ccc3c(C(=O)NCC(C)(C)OC(=O)CCl)nn(C)c3c2)cc1Br [QW-783]
78.5 ± 10.5 | Cn1nc(C(=O)NC(C)(C)COC(=O)CCl)c2ccc(-c3ccc(C(F)(F)F)c(Cl)c3)cc21 [QW-794]
80.1 ± 4.7 | COc1c(F)cc(-c2ccc3c(C(=O)NC(C)(C)COC(=O)CCl)nn(C)c3c2)cc1Cl [QW-802]

Further lines, the compound ahead of its results:

SMILES | GPX4% inhibition at 2.5 μM [%]
Cn1nc(C(=O)NC(C)(C)COC(=O)CCl)c2ccc(-c3cccc(C=O)c3)cc21 [QW-599] | 51.0 ± 4.4
Cn1nc(C(=O)NC(C)(C)CNC(=O)CCl)c2ccc(-c3ccc(N4CCOCC4)c(Cl)c3)cc21 [QW-629] | 14.9 ± 16.7
COc1ccc(-c2ccc3c(C(=O)N4CCC(OC(=O)CCl)C4(C)C)nn(C)c3c2)cc1Cl (stereo not shown) [QW-676] | 22.9 ± 12.1
CCOc1ccc(-c2ccc3c(-n4cc(C(C)(C)COC(=O)CCl)nn4)nn(C)c3c2)cc1Cl [QW-681] | 31.0 ± 4.9
Cn1nc(C(=O)NC(COC(=O)CCl)C(F)(F)F)c2ccc(-c3ccc(N4CCOCC4)c(Cl)c3)cc21 (stereo not shown) [QW-687] | 7.9 ± 2.3
Cn1nc(C(=O)N2CCC(OC(=O)CCl)C2(C)C)c2ccc(-c3ccc(N4CCOCC4)c(Cl)c3)cc21 (stereo not shown) [QW-691] | 30.5 ± 7.4
COc1ccc(-c2ccc3c(-c4nnc(C(C)(OC(=O)CCl)C(F)(F)F)o4)nn(C)c3c2)cc1Cl (stereo not shown) [QW-699] | 2.4 ± 17.3
Cn1nc(-c2nnc(C(C)(OC(=O)CCl)C(F)(F)F)o2)c2ccc(-c3ccc(N4CCOCC4)c(Cl)c3)cc21 (stereo not shown) [QW-700] | −2.2 ± 5.0
Cn1nc(C(=O)N2CCC(OC(=O)CCl)C2(C)C)c2ccc(-c3ccc4c(c3)OCO4)cc21 (stereo not shown) [QW-702] | 23.8 ± 3.7
COc1c(Cl)cc(-c2ccc3c(-n4cc(CCOC(=O)CCl)nn4)nn(C)c3c2)cc1Cl [QW-752] | −6.6 ± 9.7
Cn1nc(-n2cc(CCOC(=O)CCl)nn2)c2ccc(-c3ccc(N4CCOCC4)c(Cl)c3)cc21 [QW-756] | 41.6 ± 9.0
Cn1nc(C(=O)NC(C)(C)C(C)(C)OC(=O)CCl)c2ccc(-c3ccc(OC(F)(F)F)c(Cl)c3)cc21 [QW-759] | 18.4 ± 8.3
CC(C)Oc1ncc(-c2ccc3c(-n4cc(C(C)(C)COC(=O)CCl)nn4)nn(C)c3c2)cn1 [QW-760] | 14.6 ± 12.4
Cn1nc(-n2cc(CCOC(=O)CCl)nn2)c2ccc(-c3ccc(OC(F)(F)F)c(Cl)c3)cc21 [QW-764] | 25.4 ± 12.0
Cn1nc(C(=O)NCC(C)(C)OC(=O)CCl)c2ccc(-c3ccc(N4CCOCC4)c(Cl)c3)cc21 [QW-775] | 36.2 ± 4.1
COc1c(Cl)cc(-c2ccc3c(C(=O)NCC(C)(C)OC(=O)CCl)nn(C)c3c2)cc1Cl [QW-778] | 30.4 ± 10.0
Cn1nc(C(=O)NCC(C)(C)OC(=O)CCl)c2ccc(-c3ccc(OC(F)(F)F)c(Cl)c3)cc21 [QW-779] | 39.1 ± 17.7
Cn1nc(-n2cc(C(C)(C)COC(=O)CCl)nn2)c2ccc(-c3ccc(C(F)(F)F)c(Cl)c3)cc21 [QW-787] | 35.1 ± 29.1
Cn1nc(-n2cc(C(C)(C)CNC(=O)CCl)nn2)c2ccc(-c3ccc(N4CCOCC4)c(Cl)c3)cc21 [QW-793] | −53.4 ± 17.0

Same assay, conditions: 2.5 μM; generation 2

GPX4% inhibition at 2.5 μM [%] | SMILES
39.0 ± 26.2 | Cn1nc(C(=O)NC(C)(C)CC(=O)N2CCN(C(=O)CCl)CC2)c2ccc(Br)cc21 [QW-638]
15.8 ± 24.7 | C=C(CN1CCOCC1)C(=O)NCC(C)(C)NC(=O)c1nn(C)c2cc(Br)ccc12 [QW-648]
41.9 ± 63.4 | Cn1nc(C(=O)N2CCC(OC(=O)CCl)C2(C)C)c2ccc(Br)cc21 (stereo not shown) [QW-673]
−37.4 ± 5.2 | Cn1nc(C(=O)NC(COC(=O)CCl)C(F)(F)F)c2ccc(Br)cc21 (stereo not shown) [QW-683]
10.6 ± 5.8 | Cn1nc(-c2nnc(C(C)(OC(=O)CCl)C(F)(F)F)o2)c2ccc(Br)cc21 (stereo not shown) [QW-694]

Same assay, conditions: 5 μM

GPX4% inhibition at 5 μM [%] | SMILES
67.5 ± 3.9 | CN(C)c1ccc(-c2ccc3c(C(=O)NC(C)(C)COC(=O)CCl)nn(C)c3c2)cc1 [QW-568]
82.5 ± 5.2 | COC(=O)c1ccc(-c2ccc3c(C(=O)NC(C)(C)COC(=O)CCl)nn(C)c3c2)cc1Cl [QW-571]
72.8 ± 7.7 | COC(=O)C=Cc1ccc(-c2ccc3c(C(=O)NC(C)(C)COC(=O)CCl)nn(C)c3c2)cc1 [QW-574]
66.3 ± 3.4 | Cn1nc(C(=O)NC(C)(C)COC(=O)CCl)c2ccc(-c3cnn(Cc4ccccc4)c3)cc21 [QW-579]
9.5 ± 5.1 | COc1ccc(-c2ccc3c(c2)c(C(=O)NC(C)(C)COC(=O)CCl)nn3C)cc1Cl [QW-584]
23.3 ± 5.2 | Cn1nc(C(=O)NC(C)(C)COC(=O)CCl)c2cc(-c3ccc(N4CCOCC4)c(Cl)c3)ccc21 [QW-585]
59.5 ± 5.7 | COc1ccc(F)c(-c2ccc3c(C(=O)NC(C)(C)COC(=O)CCl)nn(C)c3c2)c1 [QW-588]
53.5 ± 6.3 | COc1ccc(Cl)cc1-c1ccc2c(C(=O)NC(C)(C)COC(=O)CCl)nn(C)c2c1 [QW-590]
76.4 ± 32.7 | Cn1nc(C(=O)NC(C)(C)CNC(=O)CCl)c2ccc(-c3ccc(Cl)c(Cl)c3)cc21 [QW-636]
30.6 ± 12.2 | COC(=O)C=CC(=O)OCC(C)(C)NC(=O)c1nn(C)c2cc(-c3ccc(OC)c(Cl)c3)ccc12 [QW-646]
20.9 ± 14.0 | CN(C)CCCOc1ccc(-c2ccc3c(C(=O)NC(C)(C)COC(=O)CCl)nn(C)c3c2)cc1 [QW-647]
8.5 ± 13.4 | Cn1nc(C(=O)NC(C)(C)COC(=O)CCl)c2ccc(-c3cc4cc(F)ccc4n3C(=O)OC(C)(C)C)cc21 [QW-659]

The remaining lines, values behind:

SMILES | GPX4% inhibition at 5 μM [%]
Cn1nc(C(=O)NC(C)(C)COC(=O)CCl)c2ccc(-c3ccc(C=CCCl)cc3)cc21 [QW-575] | 35.9 ± 1.3
CC(C)(COC(=O)CCl)NC(=O)c1n[nH]c2cc(-c3ccc(N4CCOCC4)c(Cl)c3)ccc12 [QW-583] | 70.9 ± 6.7
Cn1nc(C(=O)NC(C)(C)COC(=O)CCl)c2ccc(-c3ccc(C=O)cc3)cc21 [QW-591] | 69.4 ± 3.3

Same assay, conditions: concentration not given

GPX4 inhibition rate | SMILES
50% | CN(C)c1ccc(-c2ccc3c(C(=O)NC(C)(C)COC(=O)CCl)nn(C)c3c2)cc1 [QW-568]
no inhibition on GPX4 | Cn1nc(C(=O)NC(C)(C)COC(=O)CCl)c2ccc(-c3ccc(OCC(F)(F)F)cc3)cc21 [QW-719]
